Measurements: US9238796B2, “Cell growth-promoting peptide and use thereof” (TOAGOSEI CO., LTD., priority 2010, dated 2016)
No end group written: not given here.

Each sequence was assayed on Rat bone marrow-derived stem cells (mesenchymal stem cells) (assay: Evaluation of cell growth-promoting activity, WST-8 colorimetric method (Example 2)). Conditions: day 0; WST-8 absorbance at 450 nm; peptide approximately 2 μM, bFGF 10 ng/mL.
Assay type: cell-based
Description: Experimental sections were set up that used the cell growth-promoting peptides obtained in Example 1 (samples 1 to 21) as a cell growth promoter and that used a commercially available bFGF as a cell growth promoter as a comparative example. For the control, a peptide-free section (the bFGF was also not added) was set up.
The details of the evaluation testing are provided below. Each synthesized sample peptide was dissolved in PBS (phosphate-buffered physiological saline) to prepare a stock solution with a peptide concentration of 1 mM.
Rat bone marrow-derived stem cells (mesenchymal stem cells) were used as the test cells. Specifically, the test stem cells were cultured by passage on Dulbecco's MEM medium (DMEM medium: Gibco product) containing 10% fetal bovine serum (FBS: Gibco product), 2 mM of L-glutamine, 50 unit/mL of penicillin, and 50 μg/mL of streptomycin. From the second passage to the fourth passage (passages 2 to 4) were used in this evaluation testing.
Thus, the test stem cells were preliminarily recovered by treatment with a 0.05% trypsin-0.53 mM EDTA solution; a test stem cell solution, prepared with the DMEM medium containing 10 ng/mL of bFGF to provide 1×10^4 cells/mL, was seeded to each well of a 96-well plate to provide a cell count of 1×10^3 per well; and pre-cultivation was carried out overnight. The amount of medium was brought to 100 μL per well for this.
The medium in each well was then exchanged for fresh medium to which a stock solution of a peptide selected from sample 1 to 21 had been added, so as to give a concentration of the peptide in each well of approximately 2 μM. For comparison, in some wells the medium in the well was exchanged for fresh medium to which a commercially available bFGF (product of PeproTech) had been added to give a concentration of 10 ng/mL (the bFGF experimental section in Table 3).
After the addition of the sample peptide or bFGF as indicated above, the 96-well plate was placed in a CO2 incubator and cultivation at quiescence was carried out at 37° C. under 5% CO2. Medium exchange was performed every other day. The exchange medium was the same as that used at the start of cultivation (i.e., the same sample peptide or bFGF was also added to the exchange medium as in the sample peptide addition section or bFGF addition section).
During this cultivation test, a “water-soluble tetrazolium salt (WST-8)” was added as a chromogenic reagent to some wells at the start of cultivation (day 0), at two days after the start of cultivation (day 2), and at four days after the start of cultivation (day 4). After incubation for 2 hours after the addition, the cell culture fluid to which the chromogenic reagent had been added was recovered. The extent of cell growth was evaluated by a colorimetric method in which, based on reduction of the tetrazolium salt, the absorbance (OD450) at a wavelength of 450 nm was measured.

Sequence	OD450 at the start of cultivation
AAWTVRAGKKRTLRKNDRKKR (AAWTVRAGKKRTLRKNDRKKR-NH2) [compound 10]	0.058
ALLLLAAWTVRAGKKRTLRKNDRKKR (ALLLLAAWTVRAGKKRTLRKNDRKKR-NH2) [compound 5]	0.058
AWTVRAGKKRTLRKNDRKKR (AWTVRAGKKRTLRKNDRKKR-NH2) [compound 11]	0.058
LAAWTVRAGKKRTLRKNDRKKR (LAAWTVRAGKKRTLRKNDRKKR-NH2) [compound 9]	0.058
LALLLLAAWTVRAGKKRTLRKNDRKKR (LALLLLAAWTVRAGKKRTLRKNDRKKR-NH2) [compound 4]	0.058
LLAAWTVRAGKKRTLRKNDRKKR (LLAAWTVRAGKKRTLRKNDRKKR-NH2) [compound 8]	0.058
LLLAAWTVRAGKKRTLRKNDRKKR (LLLAAWTVRAGKKRTLRKNDRKKR-NH2) [compound 7]	0.058
LLLLAAWTVRAGKKRTLRKNDRKKR (LLLLAAWTVRAGKKRTLRKNDRKKR-NH2) [compound 6]	0.058
MLPSLALGKKRTLRKNDRKKR (MLPSLALGKKRTLRKNDRKKR-NH2) [compound 21]	0.058
MLPSLALLGKKRTLRKNDRKKR (MLPSLALLGKKRTLRKNDRKKR-NH2) [compound 20]	0.058
MLPSLALLLGKKRTLRKNDRKKR (MLPSLALLLGKKRTLRKNDRKKR-NH2) [compound 19]	0.058
MLPSLALLLLAAGKKRTLRKNDRKKR (MLPSLALLLLAAGKKRTLRKNDRKKR-NH2) [compound 16]	0.058
MLPSLALLLLAAWGKKRTLRKNDRKKR (MLPSLALLLLAAWGKKRTLRKNDRKKR-NH2) [compound 15]	0.058
MLPSLALLLLAAWTGKKRTLRKNDRKKR (MLPSLALLLLAAWTGKKRTLRKNDRKKR-NH2) [compound 14]	0.058
MLPSLALLLLAAWTVGKKRTLRKNDRKKR (MLPSLALLLLAAWTVGKKRTLRKNDRKKR-NH2) [compound 13]	0.058
MLPSLALLLLAAWTVRAGKKRTLRKNDRKKR (MLPSLALLLLAAWTVRAGKKRTLRKNDRKKR-NH2) [sample 1]	0.058
MLPSLALLLLAGKKRTLRKNDRKKR (MLPSLALLLLAGKKRTLRKNDRKKR-NH2) [compound 17]	0.058
MLPSLALLLLGKKRTLRKNDRKKR (MLPSLALLLLGKKRTLRKNDRKKR-NH2) [compound 18]	0.058

Same assay, conditions: day 2; WST-8 absorbance at 450 nm; peptide approximately 2 μM, bFGF 10 ng/mL

Sequence	OD450 after 2 days
AAWTVRAGKKRTLRKNDRKKR (AAWTVRAGKKRTLRKNDRKKR-NH2) [compound 10]	0.149
ALLLLAAWTVRAGKKRTLRKNDRKKR (ALLLLAAWTVRAGKKRTLRKNDRKKR-NH2) [compound 5]	0.189
AWTVRAGKKRTLRKNDRKKR (AWTVRAGKKRTLRKNDRKKR-NH2) [compound 11]	0.169
LAAWTVRAGKKRTLRKNDRKKR (LAAWTVRAGKKRTLRKNDRKKR-NH2) [compound 9]	0.179
LALLLLAAWTVRAGKKRTLRKNDRKKR (LALLLLAAWTVRAGKKRTLRKNDRKKR-NH2) [compound 4]	0.136
LLAAWTVRAGKKRTLRKNDRKKR (LLAAWTVRAGKKRTLRKNDRKKR-NH2) [compound 8]	0.168
LLLAAWTVRAGKKRTLRKNDRKKR (LLLAAWTVRAGKKRTLRKNDRKKR-NH2) [compound 7]	0.176
LLLLAAWTVRAGKKRTLRKNDRKKR (LLLLAAWTVRAGKKRTLRKNDRKKR-NH2) [compound 6]	0.186
MLPSLALGKKRTLRKNDRKKR (MLPSLALGKKRTLRKNDRKKR-NH2) [compound 21]	0.155
MLPSLALLGKKRTLRKNDRKKR (MLPSLALLGKKRTLRKNDRKKR-NH2) [compound 20]	0.158
MLPSLALLLGKKRTLRKNDRKKR (MLPSLALLLGKKRTLRKNDRKKR-NH2) [compound 19]	0.163
MLPSLALLLLAAGKKRTLRKNDRKKR (MLPSLALLLLAAGKKRTLRKNDRKKR-NH2) [compound 16]	0.172
MLPSLALLLLAAWGKKRTLRKNDRKKR (MLPSLALLLLAAWGKKRTLRKNDRKKR-NH2) [compound 15]	0.133
MLPSLALLLLAAWTGKKRTLRKNDRKKR (MLPSLALLLLAAWTGKKRTLRKNDRKKR-NH2) [compound 14]	0.132
MLPSLALLLLAAWTVGKKRTLRKNDRKKR (MLPSLALLLLAAWTVGKKRTLRKNDRKKR-NH2) [compound 13]	0.123
MLPSLALLLLAAWTVRAGKKRTLRKNDRKKR (MLPSLALLLLAAWTVRAGKKRTLRKNDRKKR-NH2) [sample 1]	0.132
MLPSLALLLLAGKKRTLRKNDRKKR (MLPSLALLLLAGKKRTLRKNDRKKR-NH2) [compound 17]	0.176
MLPSLALLLLGKKRTLRKNDRKKR (MLPSLALLLLGKKRTLRKNDRKKR-NH2) [compound 18]	0.184

Same assay, conditions: day 4; WST-8 absorbance at 450 nm; peptide approximately 2 μM, bFGF 10 ng/mL

Sequence	OD450 after 4 days
AAWTVRAGKKRTLRKNDRKKR (AAWTVRAGKKRTLRKNDRKKR-NH2) [compound 10]	0.389
ALLLLAAWTVRAGKKRTLRKNDRKKR (ALLLLAAWTVRAGKKRTLRKNDRKKR-NH2) [compound 5]	0.483
AWTVRAGKKRTLRKNDRKKR (AWTVRAGKKRTLRKNDRKKR-NH2) [compound 11]	0.403
LAAWTVRAGKKRTLRKNDRKKR (LAAWTVRAGKKRTLRKNDRKKR-NH2) [compound 9]	0.398
LALLLLAAWTVRAGKKRTLRKNDRKKR (LALLLLAAWTVRAGKKRTLRKNDRKKR-NH2) [compound 4]	0.304
LLAAWTVRAGKKRTLRKNDRKKR (LLAAWTVRAGKKRTLRKNDRKKR-NH2) [compound 8]	0.418
LLLAAWTVRAGKKRTLRKNDRKKR (LLLAAWTVRAGKKRTLRKNDRKKR-NH2) [compound 7]	0.499
LLLLAAWTVRAGKKRTLRKNDRKKR (LLLLAAWTVRAGKKRTLRKNDRKKR-NH2) [compound 6]	0.483
MLPSLALGKKRTLRKNDRKKR (MLPSLALGKKRTLRKNDRKKR-NH2) [compound 21]	0.332
MLPSLALLGKKRTLRKNDRKKR (MLPSLALLGKKRTLRKNDRKKR-NH2) [compound 20]	0.320
MLPSLALLLGKKRTLRKNDRKKR (MLPSLALLLGKKRTLRKNDRKKR-NH2) [compound 19]	0.478
MLPSLALLLLAAGKKRTLRKNDRKKR (MLPSLALLLLAAGKKRTLRKNDRKKR-NH2) [compound 16]	0.525
MLPSLALLLLAAWGKKRTLRKNDRKKR (MLPSLALLLLAAWGKKRTLRKNDRKKR-NH2) [compound 15]	0.276
MLPSLALLLLAAWTGKKRTLRKNDRKKR (MLPSLALLLLAAWTGKKRTLRKNDRKKR-NH2) [compound 14]	0.293
MLPSLALLLLAAWTVGKKRTLRKNDRKKR (MLPSLALLLLAAWTVGKKRTLRKNDRKKR-NH2) [compound 13]	0.232
MLPSLALLLLAAWTVRAGKKRTLRKNDRKKR (MLPSLALLLLAAWTVRAGKKRTLRKNDRKKR-NH2) [sample 1]	0.243
MLPSLALLLLAGKKRTLRKNDRKKR (MLPSLALLLLAGKKRTLRKNDRKKR-NH2) [compound 17]	0.468
MLPSLALLLLGKKRTLRKNDRKKR (MLPSLALLLLGKKRTLRKNDRKKR-NH2) [compound 18]	0.505
